Article PMC4017264 (Molecular Cell, 2014)

Experiments:
[1] = tested on: LUBAC-induced NFκB activity; test: NFκB luciferase reporter assay (LUBAC-induced); format: cell-based; details: HEK293T cells; for inhibition of NFκB activity induced by HOIP PIM pocket mutants (N102D, Y82A) + HOIL-1 (in words): compared with wild-type HOIP
Description: Cells were cotransfected with the NFκB luciferase reporter construct pBIIXluc and the thymidine kinase-renilla luciferase construct in addition to other vectors used in the study. After 24 hr, cells were lysed in passive lysis buffer (Promega), and luciferase activity was recorded. Protein expression levels were determined by western blotting of cell lysates. […]
(§1) siOTULIN: […], siMM […]
Luciferase reporter assays
Cells were co-transfected with the NF!B luciferase reporter construct pBIIXluc and the thymidine kinase-renilla luciferase construct to enable normalization of transfection efficiency. Cells were co-transfected with additional plasmids as indicated. After 24 h cells were lysed in 75 %L passive lysis buffer (Promega) and luciferase activity was measured on a FLUOstar Omega
Microplate Reader (BMG LABTECH GmbH, Offenburg, Germany) using the DualLuciferase ® Assay System (Promega) according to the manufacturer’s instructions. Protein expression levels were determined by SDS-PAGE and Western blotting of cell lysates as indicated. The data shown represents mean ± SEM. A two-tailed Student´s t -test was applied to evaluate statistical

[2] = tested on: HOIP PUB domain (15N HOIP 1-184); test: NMR binding (chemical shift perturbation) to 15N-labeled HOIP PUB domain; design: species or system Human; details: 15N BEST-TROSY NMR, 100 μM 15N HOIP 1-184, 20 mM phosphate pH 6.8, 50 mM NaCl, 2 mM DTT, 298K
Description: Standard triple-resonance experiments (HNCA, HN(CO)CA, HNCACB, CBCA(CO)NH, and HBHA(CO)NH) were acquired for the assignment of HOIP resonances. Constant time ^13C and ^13C-HSQC were acquired for the methyl and aromatic regions. In addition, (HB)CB(CGCD)HD and (HB)CB(CGCDCE)HE experiments coupled the Cβ of tyrosine resonances to the Hδ and Hε positions of the tyrosine ring, respectively.
Fluorescence polarization binding assays
10 µl of 100 nM FITC-Ahx peptides of either OTULIN (49-67) or p97 (797-806) were aliquoted into a 384-well low volume plate (Corning). Serial dilutions of HOIP PUB into FP assay buffer (20 mM Tris pH 7.4, 100 mM NaCl, 1 mM DTT) were prepared and 10 µl of this was aliquoted to FITC-Ahx peptide-containing wells. Fluorescence polarization was recorded on a PheraStar plate reader (BMG Labtech) using an optics module with $ex = 485 nm and $em = 520 nm. To derive binding constants (KD), polarization values were fitted to a one-site binding model using Graphpad Prism 5.
Nuclear Magnetic Resonance Spectroscopy
Uniformly labeled 15N or 13C, 15N samples of HOIP were prepared following growth in 2M9 medium supplemented with either 15N NH4Cl or 13C glucose.
Proteins were purified as described above and all samples were exchanged into NMR sample buffer (20 mM Na2HPO4/NaH2PO4 pH 6.8, 50 mM NaCl, 2 mM DTT). Lyophilized OTULIN and p97 PIM peptides were reconstituted in NMR sample buffer and the pH adjusted to pH 6.8 prior to use. NMR data were acquired at 298K on Bruker Avance III 600 MHz and Avance2+ 700
MHz spectrometers, equipped with cryogenic triple resonance TCI probes.
Standard triple resonance experiments (HNCA, HN(CO)CA, HNCACB, CBCA(CO)NH, HBHA(CO)NH) were acquired for the assignment of backbone
HOIP resonances. In addition, constant-time (ct) 13C and 13C-HSQC were acquired for the methyl and aromatic regions. For assignment of the H",H# resonances of HOIP tyrosines, (HB)CB(CGCD)HD and (HB)CB(CGCDCE)HE spectra were acquired, which coupled the C$ position of the tyrosine resonances to the H"/H# position of the tyrosine ring respectively. […]

HOIP 1-184 = test: analytical size-exclusion chromatography binding; design: species or system Human; details: Superdex 75; 30 µM HOIP, 25 µM OTULIN, 20 mM Tris pH 7.4, 150 mM NaCl, 2 mM DTT, room temperature 15 min
Description: All mutations were generated by site directed mutagenesis using the QuikChange method with KOD HotStart DNA polymerase.
Protein expression and purification
HOIP PUB domain constructs were expressed in Rosetta2 (DE3) pLacI cells.
Cells were grown at 30 °C in 2 xTY medium supplemented with 30 µg/ml kanamycin and 34 µg/ml chloramphenicol to an OD600 of 0.8. The culture was cooled to 18 °C prior to overnight induction with 400 µM IPTG. Cells were resuspended and lysed by sonication in lysis buffer (20 mM Tris pH 7.4, 300 mM NaCl, 50 mM imidazole, 2 mM #-mercaptoethanol, lysozyme, DNaseI
(Sigma) and protease inhibitor cocktail (Roche)). HOIP was purified by immobilized metal affinity chromatography using a HisTrap column (GE Life Sciences). The His6-tag was cleaved by overnight incubation with 3C protease. The protein was buffer exchanged into 20 mM Tris pH 8.5, 2 mM DTT and purified further by anion exchange chromatography (ResourceQ, GE Life Sciences). Eluted HOIP was then subjected to size exclusion chromatography (HiLoad 16/60 Superdex 75, GE Life Sciences) in buffer containing 20 mM Tris pH 8.5, 150 mM NaCl, 2 mM DTT. The resultant fractions were judged to be 99% pure following SDS-PAGE analysis and flash frozen. OTULIN was expressed and purified according to (Keusekotten et al., […]
kind gift from Mark Allen (MRC LMB).
Analytical size exclusion chromatography binding studies […]

[3] = tested on: endogenous LUBAC (HOIP, HOIL-1, SHARPIN); test: coimmunoprecipitation of endogenous LUBAC components with HA-tagged OTULIN; format: cell-based; details: HA-OTULIN variants in HEK293T cells, anti-HA IP, western blot
Description: Transfected HEK293T or U2OS and NOD2 cells were lysed in the presence of protease and phosphatase inhibitors. Clarified lysates were incubated overnight with anti-V5 and anti-HA-agarose resin. […]
as §1
Immunoprecipitation of HOIP-V5 and HA-OTULIN
HEK293T or U2OS/NOD2 cells were transfected as indicated. The cells were lysed in IP buffer buffer (25 mM HEPES pH 7.4, 150 mM KCl, 2 mM MgCl2, 1 mM EGTA, 0.5% (v/v) Triton X-100) supplemented with 5 mM NEM (Sigma-Aldrich), cOmplete protease inhibitor cocktail (Roche) and PhosSTOP
(Roche). After 30 minutes on ice, the lysates were cleared by centrifugation and incubated overnight at 4 °C with anti-V5-agarose resin or anti-HA-agarose resin. The beads were washed four times in ice-cold IP buffer and the precipitated material was eluted with 0.2 M glycine, pH 2.5. […]

[4] = tested on: HOIP (Met1-linked polyUb); details: overexpression of catalytically inactive OTULIN, ref Fiil et al., 2013, Keusekotten et al.; cited from earlier work
Text: So far, the cellular consequences of OTULIN-LUBAC interaction are unclear. […] We wondered whether this depended on the formation of the OTULIN-HOIP complex or whether OTULIN would act in trans on the complex. When coexpressed with HOIL-1, HOIP PUB binding mutants autoubiquitinated in cells exp ...

[5] = tested on: HOIP (Met1-linked polyUb); test: HOIP autoubiquitination, purification of endogenous Met1-polyUb conjugates (M1-SUB pulldown); format: cell-based; details: U2OS/NOD2 cells, ectopic OTULIN variants, basal, identical with L18-MDP or TNF, immunoblot
Text: Antibodies and affinity resin
The following antibodies and reagents were used according to the manufacturers’ instructions: anti-HA-agarose resin (A2095), anti-V5-agarose resin (A7345) and rabbit polyclonal anti-HOIP/RNF31 (SAB2102031, Sigma-Aldrich), rat monoclonal anti-HA (#11867423991, Roche Diagnostics, Burgess Hill, UK), mouse monoclonal anti-ubiquitin (IMG-5021, Imgenex, San Diego, CA), rabbit polyclonal anti-SHARPIN (#14626-1-AP, ProteinTech, Chicago, IL), rabbit polyclonal anti-RBCK1/HOIL-1 (NBP1-88301, Novus Biologicals, Littleton, CO), mouse monoclonal anti-V5 (MCA1360, AbD Serotec, Kidlington, UK), mouse monoclonal anti-$-actin (MAB1501, Chemicon, Millipore, Billerica, MA), rabbit polyclonal anti-HOIL-1, rabbit polyclonal anti-HOIP/RNF31
(Sigma), mouse monoclonal anti-p97 (Thermo Scientific). The
Fam105B/OTULIN antibody was previously described (Keusekotten et al., 2013). […]
HEK293ET, RPE1 and U2OS cells were collected, washed with PBS and lysed on ice for 30 minutes in SEC cell extraction buffer (150 mM NaCl, 50 mM Tris-HCl pH 7.4, 1 mM MgCl2, 1 mM DTT, 0.3% NP40, protease and (Roche)). […] In total 3.1 mg protein extract was analyzed on a Superdex 200 10/300 GL column (GE Life Sciences). […]

| Substance | inhibition of NFκB activity induced by wild-type LUBAC (in words) ([1]; HOIL-1 + wild-type HOIP) | inhibition of NFκB activity induced by HOIP PIM pocket mutants (N102D, Y82A) + HOIL-1 (in words) [1] | inhibition of NFκB activity induced by HOIP PIM pocket mutants (N102D, Y82A) + HOIL-1 (in words) ([1]; listed as wild-type OTULIN) | binding / chemical shift perturbations of HOIP PUB domain (in words) [2] | binding to HOIP aa 1-184 (in words) (HOIP 1-184) | coimmunoprecipitation of endogenous LUBAC components (in words) [3] | HOIP autoubiquitination with Met1-linked polyUb (in words), previously shown [4] | HOIP autoubiquitination with Met1-linked polyUb (in words) [5] |
| --- | --- | --- | --- | --- | --- | --- | --- | --- |
| OTULIN: full-length OTULIN (aa 1–352), Met1-specific deubiquitinase | abrogated NFκB activity | less effective in inhibiting activity | reduced the ability of OTULIN to antagonize LUBAC-induced NFκB activity | pattern of HOIP CSPs was identical | able to bind | coimmunoprecipitated all proteins from the endogenous LUBAC complex | – | – |
| OTULIN C129A: catalytically inactive OTULIN C129A mutant (CA) | – | – | – | – | – | – | lead to the autoubiquitination of HOIP with Met1-linked polyUb chains | led to extensive HOIP ubiquitination |
